Measured values: paper PMC5729604, “Dual inhibitors of hepatitis C virus and hepatocellular carcinoma: design, synthesis and docking studies” (Future Science OA, 2017)
Values after ≈ are worked out from the molar mass of the structure shown. Values joined by “and” are separate entries in the source; they are usually repeats but may differ in a detail not shown here. Equal entries are not always repeated. Where two headings read alike, the source gives them in different places.

Tests used:
In vitro hemolytic assay = type: cell-based; conditions: 2% erythrocyte suspension (washed red blood cells); 2% erythrocyte suspension, 3 μl of 1 mg/ml compound in DMF per 240 μl well, 37°C 30 min, absorbance 405 nm; <5% considered nontoxic
Protocol: Compounds 5a-x and 6a-h were subjected to the in vitro hemolytic assay to identify those which cause hemolysis to red blood cells (RBCs). Consequently, these compounds would be toxic in vivo so they were excluded from further biological screening.
Blood samples (5 ml) were freshly collected into heparinized tubes and were centrifuged (1000 r.p.m. for 20 min) at room temperature. The plasma and buffy coat were removed by Pasteur pipette, and the collected erythrocytes were washed three-times using isotonic buffer solution (0.9% sodium chloride [Sigma-Aldrich, MO, USA]) by centrifugation (2500 r.p.m. for 10 min). A two percent erythrocyte suspension was prepared to be used in the assay.
A 1 mg/ml stock solution of each compound was prepared in DMF (Sigma-Aldrich). Compound wells were prepared by adding 3 μl of the compound solution to 117 μl isotonic buffer solution and 120 μl erythrocyte suspension. Compounds color blank wells were prepared by adding 3 μl compound to 237 μl isotonic buffer solution. Solvent (DMF) wells were prepared by adding 3 μl DMF to 117 μl isotonic buffer solution and 120 μl erythrocyte suspension. Positive control wells (representing 100% hemolysis) were prepared by adding 120 μl erythrocyte suspension to 120 μl distilled water, while negative control wells (representing 0% hemolysis) were prepared by adding 120 μl erythrocyte suspension to 120 μl isotonic buffer solution. Finally, blank wells contained only 240 μl isotonic buffer solution. Each set of samples was pipetted in triplicate. The microtiter plate was then shaken well on bench, incubated at 37°C for 30 min then centrifuged (2000 rpm for 5 min) at room temperature.
A fraction of the supernatant layer (150 μl) of each well was transferred to another 96-well microtiter plate. Erythrocyte hemolysis was determined by reading the absorbance (A) of liberated hemoglobin at 405 nm in the supernatant fraction compared with the 100% hemolysis of erythrocyte. The average value was calculated from triplicate assay: [drawing 2]

[1] = test system: human HCC cell line HepG2; test: cells; type: cell-based; conditions: for IC50: Homo sapiens, HepG2, 72 h; for in vitro anticancer activity against HepG2, in words: IC50 <100 μg/ml potential, 100-1000 μg/ml moderate; for (LD0) HepG2 / Safe doses (100% viability of HepG2) LD0: human
Protocol: The safe compounds on RBCs (5a-g, 5i-l, 5p-r, 5v-w, 6b-g) were screened for their potential anticancer activity against human HCC cell line HepG2. HepG2 cells were exposed to the test compounds, then viability of cells was measured using neutral red uptake assay as described by Borenfreund and Puerner. This assay depends on the fact that neutral red dye can be incorporated into the lysosomes of living cells providing a quantitative assay to the cytotoxic effects. The results were interpreted to calculate both the concentration causing 50% cancer cell death (IC50) of each compound and the maximum safe concentration that cause 100% viability (LD0; to be used in the in vitro anti-HCV testing) using GraphPad InStat 3.0 software (Figure 5 & Supplementary Table 2).
HepG2 cells were routinely maintained as adherent cell cultures in RPMI-1640 medium (Lonza Group Ltd, Basel, Switzerland) supplemented with 10% fetal bovine serum (FBS; Lonza, IL, USA) at 37°C in a humidified air incubator containing 5% CO2. Cells were subcultured for 2 weeks before assay. Cell viability was assessed using trypan blue exclusion method.
HepG2 cells were washed twice in RPMI-1640 medium supplemented with 200 μM L-glutamine (Lonza) and […] 4-(2-hydroxyethyl)-1-piperazineethanesulfonic acid (HEPES) buffer (Lonza). The cells were suspended at 3 × 10^4 cells/ml in RPMI culture medium (RPMI supplemented medium and 10% FBS). The appropriate number of cells was chosen to be 3 × 10^3 cells/well (100 μl of the prepared suspension), and the cells were left to adhere on the polystyrene 96-well plates in an incubator at 37°C, 5% CO2 and 95% humidity for 24 h. The cells were washed once using RPMI supplemented medium.
A 2 mg/ml stock solution of each compound was prepared in DMF and filtered using a 0.2 μM syringe filter. The desired concentrations (20, 10, 5, 2.5 and 1.25 μg/ml) were prepared using serial dilution in a 96-well plate. Compound wells were prepared by adding 100 μl of the previously prepared concentrations to a 100 μl of HepG2 cells suspension. Parallel concentrations of the solvent were prepared to be used as controls. 5-Fluorouracil was used as a positive control. Control wells were prepared by adding 100 μl culture media to a 100 μl of HepG2 cells suspension. Blank wells contained 200 μl of culture media only (without cells or compound solution). Each set of samples was pipetted in duplicate. The plate was gently shaken, then incubated at 37°C, 5% CO2 for 72 h.
After incubation, the plate was centrifuged (2000 r.p.m. for 10 min). The media were discarded by inversion over paper towels. A working solution (100 μg/ml) of neutral red stain (Bio Basic Inc, Markham, Canada) was prepared, and 100 μl of this solution was added to each well, then the plate was gently shaken. The plate was incubated at 37°C in humidified 5% CO2 for 3 h, and then centrifuged (2000 r.p.m. for 10 min). Excess dyes were discarded, and the cells were fixed with 100 μl fixing solution (0.5% formalin with 1% calcium chloride [Sigma-Aldrich]) for 1 min. Cells were destained in 100 μl destaining solution (50% ethanol with 1% glacial acetic acid [Sigma-Aldrich]) for 5 min by shaking. The stain intensity was assayed using automated microplate reader spectrophotometer adjusted at 490 nm. Surviving cell fraction was calculated according to the following equation: [drawing 3]
The results were interpreted to calculate both the concentration causing 50% cancer cell death (IC50) of each compound and the maximum safe concentration that cause 100% viability (LD0; to be used in the in vitro anti-HCV testing) using GraphPad InStat 3.0 software.

[2] = 72 h, neutral red, Table 1, read-out: IC50 (HepG2)
[3] = 72 h, neutral red, read-out: IC50 against HepG2 cells
[4] = LD50 on normal cells / IC50 on cancer cells, larger than three = highly selective
[5] = 72 h, neutral red, Supplementary Table 2, read-out: Anticancer (HepG2) IC50

| SMILES | hemolysis at 30 min, 12.5 µg/ml (In vitro hemolytic assay) [%] | IC50 [1, 2] [µg/mL] | in vitro anticancer activity against HepG2, in words [1] | Selectivity index ([1]; LD50 on PBMC / IC50 on HepG2) | (LD0) HepG2 ([1]; 72 h) [µg/mL] | Safe doses (100% viability of HepG2) LD0 ([1]; 72 h) [µg/mL] | IC50 [1, 3] [µg/mL] | IC50 against HepG2 cells ([1]; 72 h, neutral red) [µg/mL] | IC100, concentration that killed 100% of cancer cells ([1]; HepG2, calculated with GraphPad InStat) | Selectivity index [1, 4] | IC50 [1, 5] [µg/mL] |
| --- | --- | --- | --- | --- | --- | --- | --- | --- | --- | --- | --- |
| COc1ccc(-c2nn(-c3ccccc3)cc2C=C2SC(=NN=C(C)c3cc4ccccc4o3)N(C3CCCCC3)C2=O)cc1 [Compound 5l, 2-[1-(Benzofuran-2-yl)ethylidenehydrazono]-5-{[3-(4-methoxyphenyl)-1-phenyl-1H-pyrazol-4-yl]methylene}-3-cyclohexylthiazolidin-4-one] | 2.89 | 82.1 (≈ 133 µM) | potential in vitro anticancer activity | 0.57 | 5.11 | 5.11 |  |  |  |  |  |
| CC(=NN=C1SC(=Cc2cn(-c3ccccc3)nc2-c2ccccc2)C(=O)N1c1ccc(Cl)cc1)c1nc2ccccc2[nH]1 [Compound 5p, 2-[1-(1H-Benzimidazole-2-yl)ethylidenehydrazono]-5-[(1,3-Diphenyl-1H-pyrazol-4-yl)methylene]-3-(4-chlorophenyl)thiazolidin-4-one] | 4.62 | 46.5 (≈ 75.7 µM) | potential in vitro anticancer activity | 2.58 | 13.32 | 13.22 | < 50 |  |  |  |  |
| CC(=NN=C1SC(=Cc2cn(-c3ccccc3)nc2-c2ccc(Cl)cc2)C(=O)N1c1ccc(Cl)cc1)c1nc2ccccc2[nH]1 [Compound 5q, 2-[1-(1H-Benzimidazole-2-yl)ethylidenehydrazono]-5-{[3-(4-chlorophenyl)-1-phenyl-1H-pyrazol-4-yl]methylene}-3-(4-chlorophenyl)thiazolidin-4-one] | 3.49 | 35.7 (≈ 55.1 µM) | potential in vitro anticancer activity |  | 23.12 | 23.12 | < 50 | < 100 | 94.54 µg/mL and < 100 µg/mL | larger than three |  |
| COc1ccc(-c2nn(-c3ccccc3)cc2C=C2SC(=NN=C(C)c3nc4ccccc4[nH]3)N(c3ccc(Cl)cc3)C2=O)cc1 [Compound 5r, 2-[1-(1H-Benzimidazole-2-yl)ethylidenehydrazono]-5-{[3-(4-methoxyphenyl)-1-phenyl-1H-pyrazol-4-yl]methylene}-3-(4-chlorophenyl)thiazolidin-4-one] | 1.87 | 11 (≈ 17.1 µM) | potential in vitro anticancer activity | 3.99 | 0.18 | 0.181 | < 50 |  |  | larger than three |  |
| CC(=NN=C1SC(=Cc2cn(-c3ccccc3)nc2-c2ccccc2)C(=O)N1C1CCCCC1)c1nc2ccccc2[nH]1 [Compound 5v, 2-[1-(1H-Benzimidazole-2-yl)ethylidenehydrazono]-5-[(1,3-Diphenyl-1H-pyrazol-4-yl)methylene]-3-cyclohexylthiazolidin-4-one] | 3.66 |  |  |  | 30.89 | 30.89 |  |  |  |  | 250 (≈ 427 µM) |
| CC(=NN=C1SC(=Cc2cn(-c3ccccc3)nc2-c2ccc(Cl)cc2)C(=O)N1C1CCCCC1)c1nc2ccccc2[nH]1 [Compound 5w, 2-[1-(1H-Benzimidazole-2-yl)ethylidenehydrazono]-5-{[3-(4-chlorophenyl)-1-phenyl-1H-pyrazol-4-yl]methylene}-3-cyclohexylthiazolidin-4-one] | 3.53 |  | very weak anticancer activity |  | 92.40 | 92.40 |  |  |  |  | 1100 (≈ 1770 µM) |
| CC(=NN=C1SC(=C2C(=O)Nc3ccccc32)C(=O)N1c1ccc(Cl)cc1)c1cc2ccccc2o1 [Compound 6b, 2-[1-(Benzofuran-2-yl)ethylidenehydrazono]-5-(2-oxoindolin-3-ylidene)-3-(4-chlorophenyl)thiazolidin-4-one] | 3.08 |  |  |  | 11.07 | 11.07 |  |  |  |  | 354 (≈ 689 µM) |
| COc1ccc(N2C(=O)C(=C3C(=O)Nc4ccccc43)SC2=NN=C(C)c2cc3ccccc3o2)cc1 [Compound 6c, 2-[1-(Benzofuran-2-yl)ethylidenehydrazono]-5-(2-oxoindolin-3-ylidene)-3-(4-methoxyphenyl)thiazolidin-4-one] | 4.02 | 76.8 (≈ 151 µM) | potential in vitro anticancer activity | 0.37 | 3.40 | 3.40 |  |  |  |  |  |
| CC(=NN=C1SC(=C2C(=O)Nc3ccccc32)C(=O)N1C1CCCCC1)c1cc2ccccc2o1 [Compound 6d, 2-[1-(Benzofuran-2-yl)ethylidenehydrazono]-5-(2-oxoindolin-3-ylidene)-3-cyclohexylthiazolidin-4-one] | 1.31 | 34.3 (≈ 70.7 µM) | potential in vitro anticancer activity | 0.42 | 7.31 | 7.31 | < 50 |  |  |  |  |
